Assay results published in patent US7465842B2, “Enantioselective biotransformation for preparation of protein tyrosine kinase inhibitor intermediates” (Agouron Pharmaceuticals, Inc., priority 2004, dated 2008).

B1: Subtilisin Carlsberg (protease from Bacillus licheniformis): commercially available hydrolase of the enzyme screening kit (protein, UniProt P00780 106-379, looked up)
Subtilisin Carlsberg: AQTVPYGIPLIKADKVQAQGFKGANVKVAVLDTGIQASHPDLNVVGGASFVAGEAYNTDGNGHGTHVAGTVAALDNTTGVLGVAPSVSLYAVKVLNSSGSGSYSGIVSGIEWATTNGMDVINMSLGGASGSTAMKQAVDNAYAKGVVVVAAAGNSGSSGNTNTIGYPAKYDSVIAVGAVDSNSNRASFSSVGAELEVMAPGAGVYSTYPTNTYATLNGTSMASPHVAGAAALILSKHPNLSASQVRNRLSSTATYLGSSFYYGKGLINVEAAAQ

Columns and labels:
[1] = Solubility of the precursor in water; assay type: physicochemical
[2] = Enzyme screening: stereoselective hydrolysis (kinetic resolution) of racemic 1-(2,6-dichloro-3-fluorophenyl)ethyl acetate; assay type: biochemical; details: selective for hydrolysis of (S)-acetate; 5% substrate load, 100 mM potassium phosphate buffer pH 7.2
Description: For example, for stereoselective hydrolysis of esters by biocatalysts, a program (Ee2 software-University of Graz) can accurately calculate the E value if the enantiomeric excess (ee) of either the alcohol or the ester at one particular enzymatic conversion are known. The ee value can be obtained, for example, from Equation 1. The [S] and [R] data can be obtained, for example, by HPLC.
The resolution of 1-(2,6-dichloro-3-fluorophenyl)ethyl acetate was carried out as follows. A 96-well plate prepared as described above was thawed for 5 minutes. 80 μL of potassium phosphate buffer (0.1 M, pH 7.2) was then dispensed into the wells using a multi-channel pipette. 10 μL of the substrate stock solution (50 mg/mL acetonitrile) was then added to each well via a multi-channel pipette, and the 96 reactions were incubated at 30° C. and 750 rpm. The reactions were sampled after 16 hours by the transfer of 25 μL of the reaction mixture into a new 96-well plate, which was then quenched by the addition of 150 μL of acetonitrile. The 96-well plate was then centrifuged, and the organic supernatant transferred from each well into another 96-well plate. Sampled reactions were then sealed using a penetrable mat cover and transferred to an HPLC system for analysis. The same plate was used to analyze the samples for both reactivity and enantioselectivity using alternating columns on the HPLC simultaneously. […]

| Molecule | solubility [1] | Reactivity [2] |
| --- | --- | --- |
| CC(=O)c1c(Cl)ccc(F)c1Cl [precursor, 1-(2,6-dichloro-3-fluorophenyl)ethanone] | < 2500 µg/mL |  |
| B1 |  | Low |
